Assay results from US11382956B2, “Amylin analogues” (Zealand Pharma A/S, priority 2016, dated 2022).
Numbered stars: 1 amine (or outer) side, 2 acyl side, 3 side chain; on linkers, the order of the positions; unused ones are H or OH. Bridge positions count the residues as written; N and C are the ends. Square brackets hold non-standard residues; d marks the D form. Peptide text beside a SMILES is read from it. * marks the point of attachment. C20 diacid = O=C(O)CCCCCCCCCCCCCCCCCCC(=O)*; γGlu = O=C(O)[C@H](CCC(=O)[*:2])N[*:1]; Hyp = O=C(O)[C@@H]1C[C@@H](O)CN1; NMeI = CC[C@H](C)[C@H](NC)C(=O)O; Orn = NCCC[C@H](N)C(=O)O; Sar = CNCC(=O)O

Assays:
[1] = Assessment of chemical stability in 40 mM buffers at 40° C. (RP-HPLC); format: physicochemical; conditions: 1 mg/mL; for % degradation after 72 h at 40° C. pH4 acetate: acetate buffer pH 4, 72 h; for % degradation after 72 h at 40° C. pH6 phosphate: phosphate buffer pH 6, 72 h; for % degradation after 14 days at 40° C. pH6 phosphate: phosphate buffer pH 6, 14 days; for % degradation after 72 h at 40° C. pH7 phosphate: phosphate buffer pH 7, 72 h; for % degradation after 14 days at 40° C. pH4 acetate: acetate buffer pH 4, 14 days; for % degradation after 14 days at 40° C. pH7 phosphate: phosphate buffer pH 7, 14 days
Summary of the method: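 Degradation is the main-peak area-% at each time point minus that at t=0, measured by C8 reversed-phase HPLC (TFA/acetonitrile/water gradient, 220 nm). Incubation at 40° C for 3 or 14 days, 1 mg/mL peptide in 40 mM buffer at pH 4, 6 or 7.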

[2] = Pharmacokinetic (PK) profiling in rats; conditions: male, Sprague Dawley, plasma; rat, single sc bolus 30 nmol/kg; read-out: in vivo half life t1/2 (plasma terminal elimination half-life) (converted)
Protocol: Sprague Dawley male rats were given a single subcutaneous (sc) bolus of each peptide to be tested, as specified below.
30 nmol/kg doses of compound were administered. Blood samples were drawn from the tail vein prior to dosing and at 24 and 96 hours after dosing. The rats were euthanized immediately after the last blood sampling by concussion and cervical dislocation.
The dosing vehicle used for each test peptide was a mannitol-containing histidine buffer (pH 7.0). Plasma samples were analyzed after precipitation with ethanol by liquid chromatography mass spectrometry (LC-MS/MS). Mean plasma concentrations were used for calculation of the pharmacokinetic parameters.
Plasma terminal elimination half-life (t1/2) was determined as In(2)/λz, where λz is the magnitude of the slope of the log linear regression of the log concentration versus time profile during the terminal phase.

[3] = target: T1, recombinant human calcitonin receptor (hCT-R) (Homo sapiens, UniProt P30988); assay: hCT-R cAMP assay (AlphaScreen) in 1321N1 cells; format: cell-based; conditions: cAMP formation, 45 min stimulation
T1 construct: host or cells: human astrocytoma cell line 1321N1
T1 sequence (P30988 25-474): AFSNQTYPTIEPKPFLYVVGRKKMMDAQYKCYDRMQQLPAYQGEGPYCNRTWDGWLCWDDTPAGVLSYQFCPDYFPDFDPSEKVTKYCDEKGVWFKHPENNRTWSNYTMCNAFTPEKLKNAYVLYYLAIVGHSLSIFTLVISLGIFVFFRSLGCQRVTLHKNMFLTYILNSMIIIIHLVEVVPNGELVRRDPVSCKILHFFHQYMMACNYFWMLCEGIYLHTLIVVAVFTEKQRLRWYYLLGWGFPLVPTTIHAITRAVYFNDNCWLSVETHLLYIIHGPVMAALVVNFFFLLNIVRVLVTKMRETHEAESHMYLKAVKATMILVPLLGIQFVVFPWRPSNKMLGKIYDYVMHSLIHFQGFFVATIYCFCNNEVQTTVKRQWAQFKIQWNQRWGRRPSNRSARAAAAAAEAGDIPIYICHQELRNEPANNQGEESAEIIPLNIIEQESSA
Summary of the method: (§1)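 EC50 values come from curve fits over at least 7 peptide concentrations, with cAMP read by AlphaScreen competition after 1 h in the dark. Cells were 1321N1 lines carrying human calcitonin receptor, with RAMP3 co-expressed for AMY3, treated 45 min at room temperature in the presence of IBMX.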

[4] = Assessment of physical stability: fibril formation by Thioflavin T fluorescence; format: physicochemical; parameters: key: FND = fibrillation not detected; FD = fibrillation detected; conditions: 1 mg/mL peptide; for Fibrillation (in buffer) pH4 acetate: 50 mM acetate buffer pH 4.0, 96 hours at 40° C.; for Fibrillation (in buffer) pH7 histidine: 50 mM histidine buffer pH 7.0, 96 hours at 40° C.; for Fibrillation (in buffer) pH7 phosphate: 50 mM phosphate buffer pH 7.0, 96 hours at 40° C.
Summary of the method: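 Fibrillation detected (FD) means a significant rise in ThT fluorescence over 96 hours at 40° C, read at 10 min intervals each preceded by 300 s automixing. Samples: 1 mg/mL peptide, 40 μM ThT, in 50 mM phosphate or histidine (pH 7.0) or acetate (pH 4.0), triplicate.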

[5] = Effect on acute food intake and body weight in normal Sprague Dawley rats; format: in vivo, Sprague Dawley (SD) rats; conditions: Dose: 30 nmol/kg sc, vehicle-corrected
[6] = target: T2, recombinant human amylin 3 receptor (hAMYR3) (Homo sapiens, UniProt O60896+P30988); assay: hAMYR3 cAMP assay (AlphaScreen) in 1321N1 cells; format: cell-based; conditions: cAMP formation, 45 min stimulation
T2 construct: host or cells: human astrocytoma cell line 1321N1
T2 sequence (P30988 25-474): T1 sequence (P30988 25-474)
T2 sequence (O60896 24-148 partner): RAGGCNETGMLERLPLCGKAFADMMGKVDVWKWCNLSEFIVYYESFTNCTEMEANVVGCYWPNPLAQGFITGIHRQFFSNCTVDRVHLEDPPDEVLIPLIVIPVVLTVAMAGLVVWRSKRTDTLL
Summary of the method: as §1

With `CC[C@H](C)[C@@H](C(=O)N[C@@H](CC(C)C)C(=O)N[C@@H](CO)C(=O)N[C@@H](CO)C(=O)N[C@H](C(=O)N[C@@H](CCC(=O)O)C(=O)N[C@H](C(=O)NCC(=O)N[C@@H](CO)C(=O)N[C@@H](CC(N)=O)C(=O)N[C@H](C(=O)N1C[C@H](O)C[C@H]1C(N)=O)[C@@H](C)O)C(C)C)[C@@H](C)O)N(C)C(=O)[C@H](C)NC(=O)CN(C)C(=O)[C@H](Cc1ccccc1)NC(=O)[C@H](CO)NC(=O)[C@H](CO)NC(=O)[C@H](CCCNC(=N)N)NC(=O)[C@H](CCC(N)=O)NC(=O)[C@H](CC(C)C)NC(=O)[C@H](Cc1ccccc1)NC(=O)[C@H](Cc1c[nH]cn1)NC(=O)[C@H](C)NC(=O)[C@H](CC(C)C)NC(=O)[C@H](CCCNC(=N)N)NC(=O)[C@H](CCC(=O)O)NC(=O)[C@@H](NC(=O)[C@H](C)NC(=O)[C@@H]1CCCNC(=O)C[C@H](NC(=O)[C@H](CCCNC(=N)N)NC(=O)CC[C@H](NC(=O)CCCCCCCCCCCCCCCCCCC(=O)O)C(=O)O)C(=O)NCC(=O)N[C@@H]([C@@H](C)O)C(=O)N[C@@H](C)C(=O)N[C@@H]([C@@H](C)O)C(=O)N1)[C@@H](C)O` [Compound 3, [19CD]-isoGlu-RD()GTAT-Orn()-ATERLAHFLQRSSF-Gly(Me)-A-Ile(Me)-LSSTEVGSNT-Hyp-NH2] ({C20 diacid-γGlu}-RDGTAT[Orn]ATERLAHFLQRSSF[Sar]A[NMeI]LSSTEVGSNT[Hyp]-NH2; lactam 2-7) the “% degradation after 72 h at 40° C. pH4 acetate” value [1] was under 1%, the “% degradation after 72 h at 40° C. pH6 phosphate” value [1] was 3.2% and the “% degradation after 14 days at 40° C. pH6 phosphate” value [1] was 1.0%. For the same molecule, the “% degradation after 72 h at 40° C. pH7 phosphate” value [1] was 1.2%, the half-life [2] was 1280 min and the EC50 [3] was 0.081 nM. For the same molecule, the “Fibrillation (in buffer) pH4 acetate” value [4] was “FND”, the “Fibrillation (in buffer) pH7 histidine” value [4] was “FND” and the “Fibrillation (in buffer) pH7 phosphate” value [4] was “FD”. For the same molecule, the “Body weight reduction in % at 48 h” value [5] was 5.6%, the “Food intake reduction in % at 48 h” value [5] was 34% and the EC50 [6] was 0.035 nM.
For `CC[C@H](C)[C@@H](C(=O)N[C@@H](CC(C)C)C(=O)N[C@@H](CO)C(=O)N[C@@H](CO)C(=O)N[C@H](C(=O)N[C@@H](CCC(=O)O)C(=O)N[C@H](C(=O)NCC(=O)N[C@@H](CO)C(=O)N[C@@H](CC(N)=O)C(=O)N[C@H](C(=O)N1C[C@H](O)C[C@H]1C(N)=O)[C@@H](C)O)C(C)C)[C@@H](C)O)N(C)C(=O)[C@H](C)NC(=O)CN(C)C(=O)[C@H](Cc1ccccc1)NC(=O)[C@H](CO)NC(=O)[C@H](CO)NC(=O)[C@H](CCCNC(=N)N)NC(=O)[C@H](CCC(N)=O)NC(=O)[C@H](CC(C)C)NC(=O)[C@H](Cc1ccccc1)NC(=O)[C@H](Cc1c[nH]cn1)NC(=O)[C@H](C)NC(=O)[C@H](CC(C)C)NC(=O)[C@H](CCCNC(=N)N)NC(=O)[C@H](CCC(=O)O)NC(=O)[C@@H](NC(=O)[C@H](C)NC(=O)[C@@H]1CCCNC(=O)C[C@H](NC(=O)[C@H](CCCNC(=N)N)NC(=O)CC[C@H](NC(=O)CC[C@H](NC(=O)CCCCCCCCCCCCCCCCCCC(=O)O)C(=O)O)C(=O)O)C(=O)NCC(=O)N[C@@H]([C@@H](C)O)C(=O)N[C@@H](C)C(=O)N[C@@H]([C@@H](C)O)C(=O)N1)[C@@H](C)O` [Compound 4, [19CD]-isoGlu-isoGlu-RD()GTAT-Orn()-ATERLAHFLQRSSF-Gly(Me)-A-Ile(Me)-LSSTEVGSNT-Hyp-NH2] ({C20 diacid-γGlu-γGlu}-RDGTAT[Orn]ATERLAHFLQRSSF[Sar]A[NMeI]LSSTEVGSNT[Hyp]-NH2; lactam 2-7), the “% degradation after 72 h at 40° C. pH4 acetate” value [1] was under 1%, the “% degradation after 14 days at 40° C. pH4 acetate” value [1] was 1.6% and the “% degradation after 72 h at 40° C. pH6 phosphate” value [1] was under 1%. The “% degradation after 14 days at 40° C. pH6 phosphate” value [1] was under 1%, the “% degradation after 72 h at 40° C. pH7 phosphate” value [1] was under 1% and the “% degradation after 14 days at 40° C. pH7 phosphate” value [1] was 6.4%. The half-life [2] was 1910 min, the EC50 [3] was 0.16 nM and the “Fibrillation (in buffer) pH4 acetate” value [4] was “FND”. For the same molecule, the “Fibrillation (in buffer) pH7 histidine” value [4] was “FND”, the “Fibrillation (in buffer) pH7 phosphate” value [4] was “FND” and the “Body weight reduction in % at 48 h” value [5] was 4.6%. The “Food intake reduction in % at 48 h” value [5] was 34% and the EC50 [6] was 0.092 nM.
In the case of `CC[C@H](C)[C@@H](C(=O)N[C@@H](CC(C)C)C(=O)N[C@@H](CO)C(=O)N[C@@H](CO)C(=O)N[C@H](C(=O)N[C@@H](CCC(=O)O)C(=O)N[C@H](C(=O)NCC(=O)N[C@@H](CO)C(=O)N[C@@H](CC(N)=O)C(=O)N[C@H](C(=O)N1C[C@H](O)C[C@H]1C(N)=O)[C@@H](C)O)C(C)C)[C@@H](C)O)N(C)C(=O)[C@H](C)NC(=O)CN(C)C(=O)[C@H](Cc1ccccc1)NC(=O)[C@H](CO)NC(=O)[C@H](CO)NC(=O)[C@H](CCCNC(=N)N)NC(=O)[C@H](CCC(N)=O)NC(=O)[C@H](CC(C)C)NC(=O)[C@H](Cc1ccccc1)NC(=O)[C@H](Cc1c[nH]cn1)NC(=O)[C@H](C)NC(=O)[C@H](CC(C)C)NC(=O)[C@H](CCCNC(=N)N)NC(=O)[C@H](CCC(=O)O)NC(=O)[C@@H](NC(=O)[C@H](C)NC(=O)[C@@H]1CCCCNC(=O)C[C@H](NC(=O)[C@H](CCCNC(=N)N)NC(=O)CC[C@H](NC(=O)CCCCCCCCCCCCCCCCCCC(=O)O)C(=O)O)C(=O)NCC(=O)N[C@@H]([C@@H](C)O)C(=O)N[C@@H](C)C(=O)N[C@@H]([C@@H](C)O)C(=O)N1)[C@@H](C)O` [Compound 18, [19CD]-isoGlu-RD()GTATK()ATERLAHFLQRSSF-Gly(Me)-A-Ile(Me)-LSSTEVGSNT-Hyp-NH2] ({C20 diacid-γGlu}-RDGTATKATERLAHFLQRSSF[Sar]A[NMeI]LSSTEVGSNT[Hyp]-NH2; lactam 2-7), the “% degradation after 72 h at 40° C. pH4 acetate” value [1] is reported as under 1%, the “% degradation after 14 days at 40° C. pH4 acetate” value [1] is reported as under 1% and the “% degradation after 72 h at 40° C. pH6 phosphate” value [1] is reported as under 1%. The “% degradation after 14 days at 40° C. pH6 phosphate” value [1] was 1.0%, the “% degradation after 72 h at 40° C. pH7 phosphate” value [1] was under 1% and the “% degradation after 14 days at 40° C. pH7 phosphate” value [1] was 1.9%. The half-life [2] was 1810 min, the EC50 [3] was 0.085 nM and the “Fibrillation (in buffer) pH4 acetate” value [4] was “FND”. For the same molecule, the “Fibrillation (in buffer) pH7 histidine” value [4] was “FND”, the “Fibrillation (in buffer) pH7 phosphate” value [4] was “FND” and the “Body weight reduction in % at 48 h” value [5] was 10%. The “Food intake reduction in % at 48 h” value [5] was 58% and the EC50 [6] was 0.031 nM.
